≈ marks a conversion by molar mass, not a printed value.

These results are taken from patent US20080103195A1, “COMPOUNDS FROM ANTRODIA CAMPHORATA FOR INHIBITING THE GROWTH OF CANCER TUMOR CELLS” (priority 2006, published 2008).

The test system of assay [1] is Hep 3B human liver cancer cells. Put plainly: In vitro assay of anti-tumor activity of liver cancer (MTT assay). It is filed as cell-based. The following applies: Hep3B, 48 h. As for the experimental part: (§1) According to anti-tumor agents screening model of National Cancer Institute (NCI) of the United States National Institutes of Health, the assay is processed by adding 4,7-dimethoxy-5-methy-1,3-benzodioxole into the culture medium of Hep 3B and Hep G2 human liver cancer tumor cells respectively.
(§2) Doses of ethyl alcohol extract of Antrodia camphorate (the control group) were respectively 30, 10, 3, 1, 0.3, 0.1, and 0.03 μg/ml for each well and 4,7-dimethoxy-5-methy-1,3-benzodioxole (the experimental group) were respectively 30, 10, 3, 1, 0.3, 0.1, and 0.03 μg/ml for each well incubated at 37° C., 5% CO2 for 48 hours. 2.5 mg/ml MTT dye is added to each well without light and incubated for 4 hours, then treated with 100 μl lysis buffer to stop the reaction.
Background: Tetrazolium dyes change colour on reduction, which living cells bring about.

Assay [2] has as its system Hep G2 human liver cancer cells. The assay is described as above. It is filed as cell-based. The following applies: HepG2, 48 h. As for the experimental part:
as §1, §2

Assay [3] concerns DU-145 human prostate cancer cells. As to the kind of experiment: In vitro assay of anti-tumor activity of prostate cancer (MTT assay). It is filed as cell-based. The following applies: DU-145, 48 h. The protocol:
(§3) According to anti-tumor agents screening model of National Cancer Institute (NCI) of the United States National Institutes of Health, the assay is processed by adding 4,7-dimethoxy-5-methy-1,3-benzodioxole into the culture medium of LNCaP and DU-145 human prostate cancer tumor cells respectively.
(§4) Doses of ethyl alcohol extract of Antrodia camphorata (the control group) were respectively 30, 10, 3, 1, and 0.3 μg/ml for each well and 4,7-dimethoxy-5-methy-1,3-benzodioxole (the experimental group) were respectively 30, 10, 3, 1, and 0.3 μg/ml for each well incubated at 37° C., 5% CO2 for 48 hours. 2.5 mg/ml MTT dye is added to each well without light and incubated for 4 hours, then treated with 100 μl lysis buffer to stop the reaction.

Assay [4] deals with LNCaP human prostate cancer cells. The description is as above. It is filed as cell-based. The conditions noted are these: 48 h. The protocol: as §3, §4
In assay [5] the test system is MDA-MB-231 human breast cancer cells. As to the kind of experiment: In vitro assay of anti-tumor activity of breast cancer (MTT assay). It counts as cell-based. The conditions noted are these: MDA-MB-231, 48 h. An excerpt: (§5) According to anti-tumor agents screening model of National Cancer Institute (NCI) of the United States National Institutes of Health, the assay is processed by adding 4,7-dimethoxy-5-methy-1,3-benzodioxole into the culture medium of MCF-7 human tumor cells and MDA-MB-231 human tumor cells respectively. The assay of tumor cell viability can be evaluated by using the conventional MTT assay, and MCF-7 and MDA-MB-231 are human breast cancer tumor cell lines.
(§6) MTT assay is a conventional assay used to analyze the cell proliferation, percentage of viable cells, and cytotoxicity. MTT (3-(4,5-dimethylthiazole-2-yl)-2,5-diphenyl tetrazolium bromide) is a yellow dye, and is metabolized only in living cells by the mitochondrial succinate-tetrazolium reductase system to produce blue violet insoluble formazan products, thereby providing a measure of the number of viable cells upon generation of formazan products in viable cells.
(§7) Doses of ethyl alcohol extract of Antrodia camphorata (the control group) were respectively 30, 10, 3, 1, 0.3, 0.1, and 0.03 μg/ml for each well and 4,7-dimethoxy-5-methy-1,3-benzodioxole (the experimental group) were respectively 30, 10, 3, 1, 0.3, 0.1, and 0.03 μg/ml for each well incubated at 37° C., 5% CO2 for 48 hours. 2.5 mg/ml MTT dye is added to each well without light and incubated for 4 hours, then treated with 100 μl lysis buffer to stop the reaction.

In assay [6] the test system is MCF-7 human breast cancer cells. The description is as above. It is filed as cell-based. The following applies: MCF7, 48 h.
Source text: as §5, §6, §7

Assay [7] has as its system LNCaP human prostate cancer cells. Put plainly: In vitro activity assay of adjuvant treatment of prostate cancer tumor cells using Taxol (MTT assay). It counts as cell-based. As for the experimental part:
(§8) Doses of 4,7-dimethoxy-5-methy-1,3-benzodioxole were 30, 10, 3, 1, 0.3, 0.1, and 0.03 μg/ml (the experimental group) and 0 μg/ml of 4,7-dimethoxy-5-methy-1,3-benzodioxole (the control group) for each well incubated at 37° C., 5% CO2 for 48 hours. 2.5 mg/ml MTT dye is added to each well without light and incubated for 4 hours, then treated with 100 μl lysis buffer to stop the reaction.

For assay [8], the system named is Hep 3B human liver cancer cells. The following applies: 0.0043 μg/ml Lovastatin alone (control group).
Protocol: (§9) First, Hep 3B human liver cancer cells and Hep G2 human liver cancer cells were respectively cultured in culture medium supplemented with fetal bovine serum for 24 hours. The proliferative cells were washed with PBS once, and treated with one-fold trypsin/EDTA solution. After centrifuged at 1,200 rpm for 5 min, the supernatant was removed and the cell pellet was transferred to new tubes and treated with 10 ml medium to suspend the cells again. Before the assay, the Hep 3B cell line was treated with 0.0043 μg/ml Lovastatin for 72 hours and the Hep G2 cell line was treated with 0.0017 μg/ml Taxol for 72 hours, and then plated in 96 well microplates. Doses of 4,7-dimethoxy-5-methy-1,3-benzodioxole were 30, 10, 3, 1, 0.3, 0.1, and 0.03 μg/ml (the experimental group) and 0 μg/ml of 4,7-dimethoxy-5-methy-1,3-benzodioxole (the control group) for each well incubated at 37° C., 5% CO2 for 48 hours. 2.5 mg/ml MTT dye is added to each well without light and incubated for 4 hours, then treated with 100 μl lysis buffer to stop the reaction. Subsequently, absorption was measured on an enzyme immunoassay analyzer at 570 nm for the measurement of viable cell number. The concentration of the drug measured at 50% of the cell death (i.e. IC50 value) was determined and calculated.
Assay [9] concerns DU-145 human prostate cancer cells. Put plainly: In vitro activity assay of adjuvant treatment of prostate cancer tumor cells using Taxol (MTT assay). It counts as cell-based. The following applies: DU-145, 0.0043 μg/ml Taxol alone (control group). The protocol: as §8
Assay [10] concerns Hep G2 human liver cancer cells. The following applies: Hep G2, 0.0017 μg/ml Taxol alone (control group).
Protocol: as §9
The subject of assay [11] is MDA-MB-231 human breast cancer cells. As to the kind of experiment: In vitro activity assay of adjuvant treatment of breast cancer tumor cells using Taxol (MTT assay). It is filed as cell-based. The conditions noted are these: MDA-MB-231, 0.0017 μg/ml Taxol alone (control group, 0 μg/ml benzodioxole). As for the experimental part:
as §8

Assay [12] deals with MCF-7 human breast cancer cells. The description is as above. It counts as cell-based. The conditions noted are these: MCF-7, 0.0017 μg/ml Taxol alone (control group, 0 μg/ml benzodioxole). The protocol:
as §8

What is called IC50 is the point on the concentration scale where inhibition reaches its midpoint. Consider `COc1cc(C)c(OC)c2c1OCO2` [4,7-dimethoxy-5-methy-1,3-benzodioxole], for which the 50% inhibitory concentration (IC50) in assay [1] is 0.016 µg/mL (≈ 0.0815 µM); in assay [2] it was 2.46 µg/mL (≈ 12.5 µM); in assay [3] it was 2.21 µg/mL (≈ 11.3 µM); in assay [4], 4.46 µg/mL (≈ 22.7 µM); in [5], 0.992 µg/mL (≈ 5.06 µM); in assay [6] it was 1.72 µg/mL (≈ 8.77 µM). Moreover, the IC50 in [7] (Homo sapiens) is 1.16 µg/mL.
Consider `CC[C@H](C)C(=O)O[C@H]1C[C@@H](C)C=C2C=C[C@H](C)[C@H](CC[C@@H]3C[C@@H](O)CC(=O)O3)[C@H]21` [Lovastatin], for which, in assay [8], the “The ratio of viable cells (%)” value turned out to be 69 ± 1%.
Regarding `CC(=O)O[C@H]1C(=O)[C@@]2(C)[C@H]([C@H](OC(=O)c3ccccc3)[C@]3(O)C[C@H](OC(=O)[C@H](O)[C@@H](NC(=O)c4ccccc4)c4ccccc4)C(C)=C1C3(C)C)[C@]1(OC(C)=O)CO[C@@H]1C[C@@H]2O` [Taxol], the “The ratio of viable cells (%)” value in assay [9] turned out to be 71 ± 1%; in assay [7] (0.0017 μg/ml Taxol alone (control group)), 55 ± 1%; in [10], 86 ± 1%; in assay [11], 86 ± 1%; in [12], 69 ± 1%.
